Experimental data as given in patent publication EP2662079A1 (Ordway Research Institute, Inc., priority 2012, dated 2013).

Legend:
GL261 cells = experiment: Sublethal damage repair (SLDR), split-dose x-rays; format: cell-based, murine
Protocol: SLDR was measured at 10% immediate survival level as determined from the acute single dose curve for both control and Tetrac-treated cells in both growth states (i.e. exponentially growing and plateau phase cells. Flasks were irradiated with one-half of the total dose and returned to the 37°C incubator. At increasing periods of time, flasks were removed, and given the second half of the immediate 10% survival dose. Survival was measured at 0, 0.5, 1.0, 1.5, 2.0, 3.0, 4.0, 6.0, 8.0, and 10.0 hours after the initial dose.
To investigate the effects of Tetrac on SLDR and PLDR, cells were chosen that had been given a one-hour treatment with Tetrac at two different times, i.e., at 70 and 270 hours post-seeding).

[1] = test system: chick chorioallantoic membrane (CAM); experiment: Chorioallantoic membrane (CAM) model of angiogenesis; format: in vivo
Protocol: In vivo neovascularization was examined by methods described previously. 9-12 Ten-day-old chick embryos were purchased from SPAFAS (Preston, CT) and incubated at 37°C with 55% relative humidity. A hypodermic needle was used to make a small hole in the shell concealing the air sac, and a second hole was made on the broad side of the egg, directly over an avascular portion of the embryonic membrane that was identified by candling. A false air sac was created beneath the second hole by the application of negative pressure at the first hole, causing the CAM to separate from the shell. A window approximately 1.0 cm^2 was cut in the shell over the dropped CAM with a small-crafts grinding wheel (Dremel, division of Emerson Electric Co.), allowing direct access to the underlying CAM. FGF2 (1µg/mL) was used as a standard proangiogenic agent to induce new blood vessel branches on the CAM of 10-day-old embryos. Sterile disks of No. 1 filter paper (Whatman International) were pretreated with 3 mg/mL cortisone acetate and 1 mmol/L PTU and air dried under sterile conditions. Thyroid hormone, hormone analogs, FGF2 or control solvents, and inhibitors were then applied to the disks and the disks allowed to dry. The disks were then suspended in PBS and placed on growing CAMs. […] At 24 hours, the MAPK cascade inhibitor PD 98059 was also added to CAMs topically by means of the filter disks.
After incubation at 37°C with 55% relative humidity for 3 days, the CAM tissue directly beneath each filter disk was resected from control and treated CAM samples. Tissues were washed 3X with PBS, placed in 35-mm Petri dishes (Nalge Nunc), and examined under an SV6 stereomicroscope (Zeiss) at X50 magnification. Digital images of CAM sections exposed to filters were collected using a 3-charge-coupled device color video camera system (Toshiba) and analyzed with Image-Pro software (Media Cybernetics). The number of vessel branch points contained in a circular region equal to the area of each filter disk were counted. One image was counted in each CAM preparation, and findings from 8 to 10 CAM preparations were analyzed for each treatment condition (thyroid hormone or analogs, FGF2, FGF2 antibody, PD 98059). In addition, each experiment was performed 3 times. The resulting angiogenesis index is the mean ± SEM of new branch points.

With `O=C(O)Cc1cc(I)c(Oc2cc(I)c(O)c(I)c2)c(I)c1` [Tetrac, 3,3',5,5'-tetraiodothyroacetic acid] the “repair of x-ray damage” value (GL261 cells; Tetrac 2uM, 6 to 8 hours post-irradiation (Figure 58)) was “no repair of x-ray damage”, the recovery ratio (GL261 cells; exponential Tetrac treated cells, 2 hours after the first dose) was 1.8 and the “factor by which Tetrac reduced SLDR” value (GL261 cells; exponential cells) was 1.8. For the same molecule, the “survival relative to survival seen at 0 hours” value (GL261 cells; plateau phase cells with Tetrac, 3 hours after the initial dose) was “approximately 36%”, the “decrease in cellular repair (factor)” value (GL261 cells; plateau phase cells, three hours post-irradiation) was ~3 and the “effect of Tetrac alone on angiogenesis” value ([1]; CAM model (Figure 3C)) was “no effect”. For the same molecule, the “Mean Branch points” value ([1]; CAM model, FGF (1.25 µg/ml) + compound at 10 µg/plug, n=8) was 81± 8 and the “effect on the action of T4 in the CAM model” value ([1]; Tetrac 0.1 µmol/L) was “inhibited”.
